Data reported in the NIST ThermoML archive (doi:10.1016/j.fluid.2010.10.009).
± gives the expanded uncertainty stated by the source.

Legend:
[1] = 303.15 K; 101.33 kPa; Liquid; Concentric cylinders viscometry
[2] = xn = mol fraction of the nth substance listed; conditions: 101 kPa, Liquid, Concentric cylinders viscometry

CC(C)(C)O [2-methylpropan-2-ol]
viscosity [1]: 3.387 ± 0.016 mPa·s

CC(C)(C)O [2-methylpropan-2-ol] + CCCCCCC
viscosity ([2]; 303.15 K, x1 = 0.103): 0.3899 ± 0.0076 mPa·s | viscosity ([2]; 303.15 K, x1 = 0.2002): 0.4118 ± 0.0077 mPa·s | viscosity ([2]; 303.15 K, x1 = 0.3006): 0.4501 ± 0.0078 mPa·s | viscosity ([2]; 303.15 K, x1 = 0.3999): 0.4922 ± 0.0078 mPa·s | viscosity ([2]; 303.15 K, x1 = 0.5001): 0.558 ± 0.008 mPa·s | viscosity ([2]; 303.15 K, x1 = 0.6001): 0.6624 ± 0.0082 mPa·s | viscosity ([2]; 303.15 K, x1 = 0.6996): 0.8071 ± 0.0086 mPa·s | viscosity ([2]; 303.15 K, x1 = 0.8001): 1.1 ± 0.0094 mPa·s | viscosity ([2]; 303.15 K, x1 = 0.9): 1.699 ± 0.011 mPa·s | viscosity ([2]; 303.15 K, x1 = 0.95): 2.263 ± 0.013 mPa·s | viscosity ([2]; 303.15 K, x1 = 1): 3.387 ± 0.016 mPa·s | viscosity ([2]; 308.15 K, x1 = 0.103): 0.3703 ± 0.0076 mPa·s | viscosity ([2]; 308.15 K, x1 = 0.2002): 0.3885 ± 0.0076 mPa·s | viscosity ([2]; 308.15 K, x1 = 0.3006): 0.4228 ± 0.0077 mPa·s | viscosity ([2]; 308.15 K, x1 = 0.3999): 0.463 ± 0.0078 mPa·s | viscosity ([2]; 308.15 K, x1 = 0.5001): 0.5194 ± 0.0079 mPa·s | viscosity ([2]; 308.15 K, x1 = 0.6001): 0.6063 ± 0.0081 mPa·s | viscosity ([2]; 308.15 K, x1 = 0.6996): 0.7282 ± 0.0083 mPa·s | viscosity ([2]; 308.15 K, x1 = 0.8001): 0.9711 ± 0.0089 mPa·s | viscosity ([2]; 308.15 K, x1 = 0.9): 1.426 ± 0.01 mPa·s | viscosity ([2]; 308.15 K, x1 = 0.95): 1.86 ± 0.012 mPa·s | viscosity ([2]; 308.15 K, x1 = 1): 2.63 ± 0.014 mPa·s | viscosity ([2]; 313.15 K, x1 = 0.103): 0.353 ± 0.0076 mPa·s | viscosity ([2]; 313.15 K, x1 = 0.2002): 0.367 ± 0.0076 mPa·s | viscosity ([2]; 313.15 K, x1 = 0.3006): 0.3983 ± 0.0077 mPa·s | viscosity ([2]; 313.15 K, x1 = 0.3999): 0.433 ± 0.0077 mPa·s | viscosity ([2]; 313.15 K, x1 = 0.5001): 0.4838 ± 0.0078 mPa·s | viscosity ([2]; 313.15 K, x1 = 0.6001): 0.5587 ± 0.008 mPa·s | viscosity ([2]; 313.15 K, x1 = 0.6996): 0.667 ± 0.0082 mPa·s | viscosity ([2]; 313.15 K, x1 = 0.8001): 0.8581 ± 0.0086 mPa·s | viscosity ([2]; 313.15 K, x1 = 0.9): 1.214 ± 0.0096 mPa·s | viscosity ([2]; 313.15 K, x1 = 0.95): 1.541 ± 0.011 mPa·s | viscosity ([2]; 313.15 K, x1 = 1): 2.097 ± 0.012 mPa·s | viscosity ([2]; 318.15 K, x1 = 0.103): 0.3329 ± 0.0075 mPa·s | viscosity ([2]; 318.15 K, x1 = 0.2002): 0.3441 ± 0.0075 mPa·s | viscosity ([2]; 318.15 K, x1 = 0.3006): 0.3737 ± 0.0076 mPa·s | viscosity ([2]; 318.15 K, x1 = 0.3999): 0.4062 ± 0.0077 mPa·s | viscosity ([2]; 318.15 K, x1 = 0.5001): 0.4507 ± 0.0077 mPa·s | viscosity ([2]; 318.15 K, x1 = 0.6001): 0.5157 ± 0.0079 mPa·s | viscosity ([2]; 318.15 K, x1 = 0.6996): 0.6022 ± 0.0081 mPa·s | viscosity ([2]; 318.15 K, x1 = 0.8001): 0.7681 ± 0.0084 mPa·s | viscosity ([2]; 318.15 K, x1 = 0.9): 1.044 ± 0.0091 mPa·s | viscosity ([2]; 318.15 K, x1 = 0.95): 1.293 ± 0.0098 mPa·s | viscosity ([2]; 318.15 K, x1 = 1): 1.707 ± 0.011 mPa·s | viscosity ([2]; 323.15 K, x1 = 0.103): 0.3144 ± 0.0075 mPa·s | viscosity ([2]; 323.15 K, x1 = 0.2002): 0.3201 ± 0.0075 mPa·s | viscosity ([2]; 323.15 K, x1 = 0.3006): 0.3489 ± 0.0076 mPa·s | viscosity ([2]; 323.15 K, x1 = 0.3999): 0.3805 ± 0.0076 mPa·s | viscosity ([2]; 323.15 K, x1 = 0.5001): 0.419 ± 0.0077 mPa·s | viscosity ([2]; 323.15 K, x1 = 0.6001): 0.4765 ± 0.0078 mPa·s | viscosity ([2]; 323.15 K, x1 = 0.6996): 0.5477 ± 0.0079 mPa·s | viscosity ([2]; 323.15 K, x1 = 0.8001): 0.6836 ± 0.0082 mPa·s | viscosity ([2]; 323.15 K, x1 = 0.9): 0.9079 ± 0.0087 mPa·s | viscosity ([2]; 323.15 K, x1 = 0.95): 1.096 ± 0.0093 mPa·s | viscosity ([2]; 323.15 K, x1 = 1): 1.415 ± 0.01 mPa·s

CC(C)(C)O [2-methylpropan-2-ol] + CCCCCCCC
viscosity ([2]; 303.15 K, x1 = 0.1002): 0.5022 ± 0.0081 mPa·s | viscosity ([2]; 303.15 K, x1 = 0.2002): 0.5263 ± 0.0082 mPa·s | viscosity ([2]; 303.15 K, x1 = 0.2996): 0.558 ± 0.0082 mPa·s | viscosity ([2]; 303.15 K, x1 = 0.4003): 0.6031 ± 0.0083 mPa·s | viscosity ([2]; 303.15 K, x1 = 0.5006): 0.6658 ± 0.0084 mPa·s | viscosity ([2]; 303.15 K, x1 = 0.5998): 0.7587 ± 0.0086 mPa·s | viscosity ([2]; 303.15 K, x1 = 0.7): 0.912 ± 0.0089 mPa·s | viscosity ([2]; 303.15 K, x1 = 0.799): 1.187 ± 0.0096 mPa·s | viscosity ([2]; 303.15 K, x1 = 0.8499): 1.438 ± 0.01 mPa·s | viscosity ([2]; 303.15 K, x1 = 0.9): 1.781 ± 0.011 mPa·s | viscosity ([2]; 303.15 K, x1 = 0.9235): 2.015 ± 0.012 mPa·s | viscosity ([2]; 303.15 K, x1 = 0.9499): 2.353 ± 0.014 mPa·s | viscosity ([2]; 303.15 K, x1 = 1): 3.387 ± 0.016 mPa·s | viscosity ([2]; 308.15 K, x1 = 0.1002): 0.4758 ± 0.008 mPa·s | viscosity ([2]; 308.15 K, x1 = 0.2002): 0.4972 ± 0.0081 mPa·s | viscosity ([2]; 308.15 K, x1 = 0.2996): 0.525 ± 0.0081 mPa·s | viscosity ([2]; 308.15 K, x1 = 0.4003): 0.5644 ± 0.0082 mPa·s | viscosity ([2]; 308.15 K, x1 = 0.5006): 0.6186 ± 0.0083 mPa·s | viscosity ([2]; 308.15 K, x1 = 0.5998): 0.6975 ± 0.0084 mPa·s | viscosity ([2]; 308.15 K, x1 = 0.7): 0.8243 ± 0.0087 mPa·s | viscosity ([2]; 308.15 K, x1 = 0.799): 1.044 ± 0.0092 mPa·s | viscosity ([2]; 308.15 K, x1 = 0.8499): 1.236 ± 0.0097 mPa·s | viscosity ([2]; 308.15 K, x1 = 0.9): 1.496 ± 0.01 mPa·s | viscosity ([2]; 308.15 K, x1 = 0.9235): 1.669 ± 0.011 mPa·s | viscosity ([2]; 308.15 K, x1 = 0.9499): 1.913 ± 0.012 mPa·s | viscosity ([2]; 308.15 K, x1 = 1): 2.63 ± 0.014 mPa·s | viscosity ([2]; 313.15 K, x1 = 0.1002): 0.4509 ± 0.008 mPa·s | viscosity ([2]; 313.15 K, x1 = 0.2002): 0.47 ± 0.008 mPa·s | viscosity ([2]; 313.15 K, x1 = 0.2996): 0.4943 ± 0.008 mPa·s | viscosity ([2]; 313.15 K, x1 = 0.4003): 0.5287 ± 0.0081 mPa·s | viscosity ([2]; 313.15 K, x1 = 0.5006): 0.5757 ± 0.0081 mPa·s | viscosity ([2]; 313.15 K, x1 = 0.5998): 0.6429 ± 0.0083 mPa·s | viscosity ([2]; 313.15 K, x1 = 0.7): 0.7485 ± 0.0085 mPa·s | viscosity ([2]; 313.15 K, x1 = 0.799): 0.9254 ± 0.0089 mPa·s | viscosity ([2]; 313.15 K, x1 = 0.8499): 1.075 ± 0.0093 mPa·s | viscosity ([2]; 313.15 K, x1 = 0.9): 1.275 ± 0.0098 mPa·s | viscosity ([2]; 313.15 K, x1 = 0.9235): 1.404 ± 0.01 mPa·s | viscosity ([2]; 313.15 K, x1 = 0.9499): 1.584 ± 0.011 mPa·s | viscosity ([2]; 313.15 K, x1 = 1): 2.097 ± 0.012 mPa·s | viscosity ([2]; 318.15 K, x1 = 0.1002): 0.4272 ± 0.0079 mPa·s | viscosity ([2]; 318.15 K, x1 = 0.2002): 0.4443 ± 0.0079 mPa·s | viscosity ([2]; 318.15 K, x1 = 0.2996): 0.4656 ± 0.0079 mPa·s | viscosity ([2]; 318.15 K, x1 = 0.4003): 0.4956 ± 0.008 mPa·s | viscosity ([2]; 318.15 K, x1 = 0.5006): 0.5363 ± 0.008 mPa·s | viscosity ([2]; 318.15 K, x1 = 0.5998): 0.5938 ± 0.0081 mPa·s | viscosity ([2]; 318.15 K, x1 = 0.7): 0.6822 ± 0.0083 mPa·s | viscosity ([2]; 318.15 K, x1 = 0.799): 0.8261 ± 0.0086 mPa·s | viscosity ([2]; 318.15 K, x1 = 0.8499): 0.9428 ± 0.0089 mPa·s | viscosity ([2]; 318.15 K, x1 = 0.9): 1.099 ± 0.0093 mPa·s | viscosity ([2]; 318.15 K, x1 = 0.9235): 1.198 ± 0.0096 mPa·s | viscosity ([2]; 318.15 K, x1 = 0.9499): 1.333 ± 0.01 mPa·s | viscosity ([2]; 318.15 K, x1 = 1): 1.707 ± 0.011 mPa·s | viscosity ([2]; 323.15 K, x1 = 0.1002): 0.4044 ± 0.0078 mPa·s | viscosity ([2]; 323.15 K, x1 = 0.2002): 0.4198 ± 0.0078 mPa·s | viscosity ([2]; 323.15 K, x1 = 0.2996): 0.4377 ± 0.0079 mPa·s | viscosity ([2]; 323.15 K, x1 = 0.4003): 0.4646 ± 0.0079 mPa·s | viscosity ([2]; 323.15 K, x1 = 0.5006): 0.5 ± 0.008 mPa·s | viscosity ([2]; 323.15 K, x1 = 0.5998): 0.549 ± 0.008 mPa·s | viscosity ([2]; 323.15 K, x1 = 0.7): 0.6233 ± 0.0082 mPa·s | viscosity ([2]; 323.15 K, x1 = 0.799): 0.7415 ± 0.0084 mPa·s | viscosity ([2]; 323.15 K, x1 = 0.8499): 0.833 ± 0.0086 mPa·s | viscosity ([2]; 323.15 K, x1 = 0.9): 0.958 ± 0.0089 mPa·s | viscosity ([2]; 323.15 K, x1 = 0.9235): 1.034 ± 0.0091 mPa·s | viscosity ([2]; 323.15 K, x1 = 0.9499): 1.136 ± 0.0094 mPa·s | viscosity ([2]; 323.15 K, x1 = 1): 1.415 ± 0.01 mPa·s

CC(C)(C)O [2-methylpropan-2-ol] + CCCCCCCCC
viscosity ([2]; 303.15 K, x1 = 1): 3.387 ± 0.016 mPa·s | viscosity ([2]; 308.15 K, x1 = 1): 2.63 ± 0.014 mPa·s | viscosity ([2]; 313.15 K, x1 = 1): 2.097 ± 0.012 mPa·s | viscosity ([2]; 318.15 K, x1 = 1): 1.707 ± 0.011 mPa·s | viscosity ([2]; 323.15 K, x1 = 1): 1.415 ± 0.01 mPa·s
